Values of other authors as cited in article PMC4287963 (Inorganic chemistry, 2009).

Details: Cu(II) complex of TETA; cited from earlier work

For `O=C(O)CN1CCCN(CC(=O)O)CCN(CC(=O)O)CCCN(CC(=O)O)CC1` [TETA], the “thermodynamic formation constant log K” value is listed as 21.9.
